Results: patent US20250361259A1, “AMORPHOUS FORM OF REDUCED ß-NICOTINAMIDE MONONUCLEOTIDE CALCIUM SALT, AND PREPARATION METHOD AND USE THEREFOR” (EffePharm (Shanghai) Co., Ltd., priority 2023, published 2025)
Where two headings read alike, the source gives them in different places.

What was measured:
[1] = Hygroscopicity study (water content, KF) at 25° C., 65% RH; type: physicochemical
Procedure: The NMNH calcium salt amorphous solids A/B/C/D were each placed openly in a stability test chamber at 25° C. and 65% RH to evaluate their stability, yielding the data shown in Table 1 and Table 2. […] The amorphous solid of NMNH disodium salt is more unstable in the air. After 1 day of storage, it absorbs water from powder to oil, and the purity drops from 99.30% to 99.02%.

[2] = Stability comparison, solids placed openly in a stability test chamber at 25° C. and 65% RH (purity by HPLC, appearance); type: physicochemical; conditions: open, calcium salt
Procedure: NMNH is the reduced form of NMN, sensitive to air, easily oxidized, and unstable, making it unsuitable for long-term storage and market promotion. WO2023160405(A1) reported the NMNH disodium salt compound and its crystalline and amorphous forms. […] Such stability fails to meet the shelf-life requirements for commercial products, hindering market promotion. The NMNH calcium salt amorphous solids A/B/C/D were each placed openly in a stability test chamber at 25° C. and 65% RH to evaluate their stability, yielding the data shown in Table 1 and Table 2.

[3] = 25° C., 65% RH, according to WO2023160405(A1), cited from earlier work
[4] = according to WO2023160405(A1); cited from earlier work

## NC(=O)C1=CN([C@@H]2O[C@H](COP(=O)(O)O)[C@@H](O)[C@H]2O)C=CC1.[Ca+2] [NMNH calcium salt Amorphous form A, reduced β-nicotinamide mononucleotide calcium salt]
[1]; 0 day
  Water content of NMNH calcium salt amorphous solid (KF): 0.8%
[1]; 5 days
  Water content of NMNH calcium salt amorphous solid (KF): 0.8%
[1]; 60 days
  Water content of NMNH calcium salt amorphous solid (KF): 0.9%
[2]; 0 day
  Purity (HPLC, area %): 99.51%
[2]; 5 days
  Purity (HPLC, area %): 99.50%
[2]; 60 days
  Purity (HPLC, area %): 99.50%

## NC(=O)C1=CN([C@@H]2O[C@H](COP(=O)(O)O)[C@@H](O)[C@H]2O)C=CC1.[Ca+2] [NMNH calcium salt Amorphous form B, reduced β-nicotinamide mononucleotide calcium salt]
[1]; 0 day
  Water content of NMNH calcium salt amorphous solid (KF): 1.3%
[1]; 5 days
  Water content of NMNH calcium salt amorphous solid (KF): 1.3%
[1]; 60 days
  Water content of NMNH calcium salt amorphous solid (KF): 1.3%
[2]; 0 day
  Purity (HPLC, area %): 99.28%
[2]; 5 days
  Purity (HPLC, area %): 99.28%
[2]; 60 days
  Purity (HPLC, area %): 99.28%

## NC(=O)C1=CN([C@@H]2O[C@H](COP(=O)(O)O)[C@@H](O)[C@H]2O)C=CC1.[Ca+2] [NMNH calcium salt Amorphous form C, reduced β-nicotinamide mononucleotide calcium salt]
[1]; 0 day
  Water content of NMNH calcium salt amorphous solid (KF): 1.5%
[1]; 5 days
  Water content of NMNH calcium salt amorphous solid (KF): 1.6%
[1]; 60 days
  Water content of NMNH calcium salt amorphous solid (KF): 1.5%
[2]; 0 day
  Purity (HPLC, area %): 99.14%
[2]; 5 days
  Purity (HPLC, area %): 99.14%
[2]; 60 days
  Purity (HPLC, area %): 99.13%

## NC(=O)C1=CN([C@@H]2O[C@H](COP(=O)(O)O)[C@@H](O)[C@H]2O)C=CC1.[Ca+2] [NMNH calcium salt Amorphous form D, reduced β-nicotinamide mononucleotide calcium salt]
[1]; 0 day
  Water content of NMNH calcium salt amorphous solid (KF): 1.9%
[1]; 5 days
  Water content of NMNH calcium salt amorphous solid (KF): 1.9%
[1]; 60 days
  Water content of NMNH calcium salt amorphous solid (KF): 1.9%
[2]; 0 day
  Purity (HPLC, area %): 99.50%
[2]; 5 days
  Purity (HPLC, area %): 99.49%
[2]; 60 days
  Purity (HPLC, area %): 99.49%

## NC(=O)C1=CN([C@@H]2O[C@H](COP(=O)([O-])[O-])[C@@H](O)[C@H]2O)C=CC1.[Na+].[Na+] [NMNH disodium salt Amorphous form, NMNH disodium salt]
[3]; 0 day, disodium salt
  Purity (HPLC, area %): 99.30%
[3]; 0 day, listed as NMNH disodium salt amorphous powder, disodium salt
  Purity (HPLC, area %): 99.30%
[3]; 0 day, listed as amorphous solid of NMNH disodium salt, disodium salt
  Purity (HPLC, area %): 99.30%
[3]; 1 day
  Appearance after storage (powder to oil): oil
[3]; 1 day, disodium salt
  Purity (HPLC, area %): 99.02%
[3]; 1 day, listed as NMNH disodium salt amorphous powder, disodium salt
  Purity (HPLC, area %): 99.02%
[3]; 1 day, listed as amorphous solid of NMNH disodium salt, disodium salt
  Purity (HPLC, area %): 99.02%

## NC(=O)C1=CN([C@@H]2O[C@H](COP(=O)([O-])[O-])[C@@H](O)[C@H]2O)C=CC1.[Na+].[Na+] [NMNH disodium salt Crystal form A, NMNH disodium salt]
[3]; 0 day, disodium salt
  Purity (HPLC, area %): 99.33%
[3]; 0 day, listed as NMNH disodium salt crystal form A, disodium salt
  Purity (HPLC, area %): 99.33%
[3]; 0 day, listed as NMNH disodium salt crystalline Form A solid, disodium salt
  Purity (HPLC, area %): 99.33%
[3]; 1 day, disodium salt
  Purity (HPLC, area %): 99.27%
[3]; 5 days
  Purity (HPLC, area %): 99.01%

## NC(=O)C1=CN([C@@H]2O[C@H](COP(=O)([O-])[O-])[C@@H](O)[C@H]2O)C=CC1.[Na+].[Na+] [NMNH disodium salt crystal form B, NMNH disodium salt]
[4]
  Solid form change when stored in the air: absorb water and transform into crystal form A
